The source of these data is patent US9587005B2 (priority 2010, dated 2017).

Read-outs that look alike come from different tables or passages of the source. *1 amine or outer side, *2 acyl side, *3 side chain or, on linkers, in order; H or OH if unused. Where a SMILES comes first, the peptide text is derived from it. Bridges are numbered along the chain shown (N, C = ends). Where no end group is shown, it is not given here. Side-chain parts run from the residue outwards. [ ]: non-standard residue; d: D form. The star is where a group is joined. γGlu = O=C(O)[C@H](CCC(=O)[*:2])N[*:1]; Palmitoyl = CCCCCCCCCCCCCCCC(=O)*; Aib = CC(C)(N)C(=O)O

Broadly, the EC50 is the concentration that produces a half-maximal response. High values mean lower potency in that assay, low ones higher potency in that assay.

What all share (assay type): cell-based
One assay has as its target T1, glucagon receptor (Homo sapiens, UniProt P47871).
T1 construct: expressed in transfected cells; host or cells: HEK293
Nature of the assay: cAMP induction, firefly luciferase reporter assay in HEK293 cells co-transfected with glucagon receptor. As to conditions: Table 4, Example 9, composite of multiple different activity assays. An excerpt:
(§1) This example describes an exemplary method of testing the biological activity of the peptides of the present disclosures, which method involves assaying cAMP synthesis.

In the next assay the target is T2, GLP-1 receptor (Homo sapiens, UniProt P43220).
T2 construct: expressed in transfected cells; host or cells: HEK293
Nature of the assay: cAMP induction, firefly luciferase reporter assay in HEK293 cells co-transfected with GLP-1 receptor.
Description: as §1
In general terms: In a reporter assay the amount or activity of a reporter protein is the signal.

The target of a further assay is T3, GIP receptor (Homo sapiens, UniProt P48546).
T3 sequence (P48546 22-466): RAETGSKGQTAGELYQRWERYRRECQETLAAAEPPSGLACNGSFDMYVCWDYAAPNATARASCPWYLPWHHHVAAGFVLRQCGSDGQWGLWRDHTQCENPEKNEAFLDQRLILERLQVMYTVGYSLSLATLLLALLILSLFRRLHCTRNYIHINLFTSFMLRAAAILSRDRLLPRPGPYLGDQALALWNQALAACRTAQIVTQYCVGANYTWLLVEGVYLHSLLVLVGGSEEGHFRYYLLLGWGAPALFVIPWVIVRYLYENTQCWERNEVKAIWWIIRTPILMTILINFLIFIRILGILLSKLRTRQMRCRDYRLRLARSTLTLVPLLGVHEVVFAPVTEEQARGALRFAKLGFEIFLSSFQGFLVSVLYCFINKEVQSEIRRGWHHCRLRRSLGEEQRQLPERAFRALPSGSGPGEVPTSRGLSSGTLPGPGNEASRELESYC
Nature of the assay: cAMP induction, firefly luciferase reporter assay in HEK293 cells co-transfected with GIP receptor.

Setting [1] is: EC50 (nM) at GLP-1 Receptor, Table 4, Example 9, composite of multiple different activity assays.
[2] abbreviates: EC50 (nM) at GIP Receptor, Table 6, Example 12.
The mark [3] stands for this setting: EC50 (nM) at GLP-1 Receptor, Table 6, Example 12.

T1 sequence (P47871 26-477): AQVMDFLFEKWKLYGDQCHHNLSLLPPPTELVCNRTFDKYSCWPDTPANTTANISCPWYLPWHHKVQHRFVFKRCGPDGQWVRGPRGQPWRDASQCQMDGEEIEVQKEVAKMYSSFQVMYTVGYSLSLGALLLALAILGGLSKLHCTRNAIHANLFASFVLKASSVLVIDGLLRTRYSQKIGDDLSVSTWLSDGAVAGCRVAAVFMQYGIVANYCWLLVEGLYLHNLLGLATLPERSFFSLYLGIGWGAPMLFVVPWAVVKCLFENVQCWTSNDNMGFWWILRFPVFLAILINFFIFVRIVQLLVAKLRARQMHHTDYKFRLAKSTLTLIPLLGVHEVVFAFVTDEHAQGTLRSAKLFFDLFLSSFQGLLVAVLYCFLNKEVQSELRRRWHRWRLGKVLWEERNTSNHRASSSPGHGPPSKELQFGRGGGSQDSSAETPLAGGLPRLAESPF
T2 sequence (P43220 24-463): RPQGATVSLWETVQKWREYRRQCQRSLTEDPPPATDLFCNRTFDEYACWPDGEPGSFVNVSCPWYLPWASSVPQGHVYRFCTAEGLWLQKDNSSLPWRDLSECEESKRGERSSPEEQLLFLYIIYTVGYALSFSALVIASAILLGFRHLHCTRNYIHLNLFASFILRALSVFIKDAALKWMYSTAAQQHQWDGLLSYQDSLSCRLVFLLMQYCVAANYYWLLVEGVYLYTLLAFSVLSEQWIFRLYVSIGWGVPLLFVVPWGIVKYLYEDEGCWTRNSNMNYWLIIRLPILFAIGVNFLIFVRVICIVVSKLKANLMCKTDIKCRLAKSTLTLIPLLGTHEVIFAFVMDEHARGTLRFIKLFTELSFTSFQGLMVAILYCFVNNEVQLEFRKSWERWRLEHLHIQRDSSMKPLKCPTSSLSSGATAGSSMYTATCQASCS

Regarding `CCCCCCCCCCCCCCCC(=O)N[C@@H](CCC(=O)NCCCC[C@H](NC(=O)[C@H](CC(=O)O)NC(=O)[C@H](CO)NC(=O)[C@@H](NC(=O)[C@H](Cc1ccccc1)NC(=O)[C@@H](NC(=O)CNC(=O)[C@H](CCC(N)=O)NC(=O)[C@@H](CO)NC(=O)[C@@H](N)Cc1c[nH]cn1)[C@@H](C)O)[C@@H](C)O)C(=O)N[C@@H](CO)C(=O)N[C@@H](CCCCN)C(=O)N[C@@H](Cc1ccc(O)cc1)C(=O)N[C@@H](CC(C)C)C(=O)N[C@@H](CC(=O)O)C(=O)N[C@@H](CCC(=O)O)C(=O)N[C@@H](CCCNC(=N)N)C(=O)N[C@@H](C)C(=O)N[C@@H](C)C(=O)N[C@@H](CCC(N)=O)C(=O)N[C@@H](CC(=O)O)C(=O)N[C@@H](Cc1ccccc1)C(=O)N[C@H](C(=O)N[C@@H](CCC(N)=O)C(=O)N[C@@H](Cc1c[nH]c2ccccc12)C(=O)N[C@@H](CC(C)C)C(=O)N[C@@H](CC(C)C)C(=O)N[C@@H](CC(=O)O)C(=O)NCC(=O)NCC(=O)N1CCC[C@H]1C(=O)N[C@@H](CO)C(=O)N[C@@H](CO)C(=O)NCC(=O)N[C@@H](C)C(=O)N1CCC[C@H]1C(=O)N1CCC[C@H]1C(=O)N1CCC[C@H]1C(=O)N[C@@H](CO)C(N)=O)C(C)C)C(=O)O` [compound 27], the EC50 is 0.003 nM at glucagon receptor (EC50 (nM) at Glucagon Receptor) and 0.002 nM on GLP-1 receptor (setting [1]).
The corresponding values for `CCCCCCCCCCCCCCCC(=O)N[C@@H](CCC(=O)NCCCC[C@H](NC(=O)[C@H](CC(=O)O)NC(=O)[C@H](CO)NC(=O)[C@@H](NC(=O)[C@H](Cc1ccccc1)NC(=O)[C@@H](NC(=O)CNC(=O)[C@H](CCC(N)=O)NC(=O)C(C)(C)NC(=O)[C@@H](N)Cc1cnc[nH]1)[C@@H](C)O)[C@@H](C)O)C(=O)N[C@@H](CO)C(=O)N[C@@H](CCCCN)C(=O)N[C@@H](Cc1ccc(O)cc1)C(=O)N[C@@H](CC(C)C)C(=O)N[C@@H](CC(=O)O)C(=O)N[C@@H](CCC(=O)O)C(=O)N[C@@H](CCCNC(=N)N)C(=O)N[C@@H](C)C(=O)N[C@@H](C)C(=O)N[C@@H](CCC(N)=O)C(=O)N[C@@H](CC(=O)O)C(=O)N[C@@H](Cc1ccccc1)C(=O)N[C@H](C(=O)N[C@@H](CCC(N)=O)C(=O)N[C@@H](Cc1c[nH]c2ccccc12)C(=O)N[C@@H](CC(C)C)C(=O)N[C@@H](CC(C)C)C(=O)N[C@@H](CC(=O)O)C(=O)NCC(=O)N[C@@H](CCCNC(=N)N)C(=O)NCC(N)=O)C(C)C)C(=O)O` [compound 29] are 0.007 nM and 0.003 nM.
Consider `CCCCCCCCCCCCCCCC(=O)N[C@@H](CCC(=O)NCCCC[C@H](NC(=O)[C@H](CC(=O)O)NC(=O)[C@H](CO)NC(=O)[C@@H](NC(=O)[C@H](Cc1ccccc1)NC(=O)[C@@H](NC(=O)CNC(=O)[C@H](CCC(N)=O)NC(=O)[C@@H](CO)NC(=O)[C@@H](N)Cc1c[nH]cn1)[C@@H](C)O)[C@@H](C)O)C(=O)N[C@@H](CO)C(=O)N[C@@H](CCCCN)C(=O)N[C@@H](Cc1ccc(O)cc1)C(=O)N[C@@H](CC(C)C)C(=O)N[C@@H](CC(=O)O)C(=O)N[C@@H](CCC(=O)O)C(=O)N[C@@H](CCCNC(=N)N)C(=O)N[C@@H](CCCNC(=N)N)C(=O)N[C@@H](C)C(=O)NC(C)(C)C(=O)N[C@@H](CCC(=O)O)C(=O)N[C@@H](Cc1ccccc1)C(=O)N[C@H](C(=O)N[C@@H](CCC(N)=O)C(=O)N[C@@H](Cc1c[nH]c2ccccc12)C(=O)N[C@@H](CC(C)C)C(=O)N[C@@H](CC(C)C)C(=O)N[C@@H](CC(=O)O)C(=O)N[C@H](C(N)=O)[C@@H](C)O)C(C)C)C(=O)O` [compound 30] (H-H[dS]QGTFTSDK([γGlu-Palmitoyl])SKYLDERRA[Aib]EFVQWLLDT-NH2; N-terminus assumed), for which the results for the 50% effective concentration (EC50) on glucagon receptor (EC50 (nM) at Glucagon Receptor) and at GLP-1 receptor (setting [1]) were 0.008 nM and 0.0031 nM, respectively.
With `CCCCCCCCCCCCCCCC(=O)N[C@@H](CCC(=O)NCCCC[C@H](NC(=O)[C@H](CC(=O)O)NC(=O)[C@H](CO)NC(=O)[C@@H](NC(=O)[C@H](Cc1ccccc1)NC(=O)[C@@H](NC(=O)CNC(=O)[C@H](CCC(N)=O)NC(=O)[C@@H](CO)NC(=O)C(C)(C)c1c[nH]cn1)[C@@H](C)O)[C@@H](C)O)C(=O)N[C@@H](CO)C(=O)N[C@@H](CCCCN)C(=O)N[C@@H](Cc1ccc(O)cc1)C(=O)N[C@@H](CC(C)C)C(=O)N[C@@H](CC(=O)O)C(=O)N[C@@H](CCC(=O)O)C(=O)N[C@@H](CCCNC(=N)N)C(=O)N[C@@H](C)C(=O)N[C@@H](C)C(=O)N[C@@H](CCC(N)=O)C(=O)N[C@@H](CC(=O)O)C(=O)N[C@@H](Cc1ccccc1)C(=O)N[C@H](C(=O)N[C@@H](CCC(N)=O)C(=O)N[C@@H](Cc1c[nH]c2ccccc12)C(=O)N[C@@H](CC(C)C)C(=O)N[C@@H](CC(C)C)C(=O)N[C@@H](CC(=O)O)C(=O)N[C@H](C(N)=O)[C@@H](C)O)C(C)C)C(=O)O` [compound 32], the EC50 worked out at 0.004 nM at glucagon receptor and 0.003 nM at GLP-1 receptor.
In the case of `CC[C@H](C)[C@H](NC(=O)[C@H](CO)NC(=O)[C@H](Cc1ccc(O)cc1)NC(=O)[C@H](CC(=O)O)NC(=O)[C@H](CO)NC(=O)[C@@H](NC(=O)[C@H](Cc1ccccc1)NC(=O)[C@@H](NC(=O)CNC(=O)[C@H](CCC(N)=O)NC(=O)C(C)(C)NC(=O)[C@@H](N)Cc1c[nH]cn1)[C@@H](C)O)[C@@H](C)O)C(=O)N[C@@H](Cc1ccc(O)cc1)C(=O)N[C@@H](CC(C)C)C(=O)N[C@@H](CC(=O)O)C(=O)N[C@@H](CCCCN)C(=O)N[C@@H](CCC(N)=O)C(=O)N[C@@H](C)C(=O)N[C@@H](C)C(=O)NC(C)(C)C(=O)N[C@@H](CCC(=O)O)C(=O)N[C@@H](Cc1ccccc1)C(=O)N[C@H](C(=O)N[C@@H](CC(N)=O)C(=O)N[C@@H](Cc1c[nH]c2ccccc12)C(=O)N[C@@H](CC(C)C)C(=O)N[C@@H](CC(C)C)C(=O)N[C@@H](C)C(=O)NCC(=O)NCC(=O)N1CCC[C@H]1C(=O)N[C@@H](CO)C(=O)N[C@@H](CO)C(=O)NCC(=O)N[C@@H](C)C(=O)N1CCC[C@H]1C(=O)N1CCC[C@H]1C(=O)N1CCC[C@H]1C(=O)N[C@@H](CO)C(=O)N[C@@H](CS)C(N)=O)C(C)C` [compound 52] (H-H[Aib]QGTFTSDYSIYLDKQAA[Aib]EFVNWLLAGGPSSGAPPPSC-NH2), the EC50 on GIP receptor (setting [2]) came out at 0.006 nM; at GLP-1 receptor (setting [3]) it was 0.005 nM.
Consider `CC[C@H](C)[C@H](NC(=O)[C@H](CO)NC(=O)[C@H](Cc1ccc(O)cc1)NC(=O)[C@H](CC(=O)O)NC(=O)[C@H](CO)NC(=O)[C@@H](NC(=O)[C@H](Cc1ccccc1)NC(=O)[C@@H](NC(=O)CNC(=O)[C@H](CCC(N)=O)NC(=O)C(C)(C)NC(=O)[C@@H](N)Cc1ccc(O)cc1)[C@@H](C)O)[C@@H](C)O)C(=O)N[C@@H](Cc1ccc(O)cc1)C(=O)N[C@@H](CC(C)C)C(=O)N[C@@H](CC(=O)O)C(=O)N[C@@H](CCCCN)C(=O)N[C@H]1CCC(=O)NCCCC[C@@H](C(=O)N[C@@H](Cc2ccccc2)C(=O)N[C@H](C(=O)N[C@@H](CC(N)=O)C(=O)N[C@@H](Cc2c[nH]c3ccccc23)C(=O)N[C@@H](CC(C)C)C(=O)N[C@@H](CC(C)C)C(=O)N[C@@H](C)C(=O)NCC(=O)NCC(=O)N2CCC[C@H]2C(=O)N[C@@H](CO)C(=O)N[C@@H](CO)C(=O)NCC(=O)N[C@@H](C)C(=O)N2CCC[C@H]2C(=O)N2CCC[C@H]2C(=O)N2CCC[C@H]2C(=O)N[C@@H](CO)C(=O)N[C@@H](CS)C(N)=O)C(C)C)NC(=O)C(C)(C)NC(=O)[C@H](C)NC(=O)[C@H](C)NC1=O` [compound 58] (H-Y[Aib]QGTFTSDYSIYLDKEAA[Aib]KFVNWLLAGGPSSGAPPPSC-NH2; lactam 17-21), for which the EC50 stood at 0.005 nM on GIP receptor (setting [2]) and 0.014 nM at GLP-1 receptor (setting [3]).
Regarding `CCCCCCCCCCCCCCCC(=O)N[C@@H](CCC(=O)N[C@@H](CCC(=O)NCCCC[C@H](NC(=O)[C@H](CC(=O)O)NC(=O)[C@H](CO)NC(=O)[C@@H](NC(=O)[C@H](Cc1ccccc1)NC(=O)[C@@H](NC(=O)CNC(=O)[C@H](CCC(N)=O)NC(=O)C(C)(C)NC(=O)[C@@H](N)Cc1ccc(O)cc1)[C@@H](C)O)[C@@H](C)O)C(=O)N[C@@H](CO)C(=O)N[C@H](C(=O)N[C@@H](Cc1ccc(O)cc1)C(=O)N[C@@H](CC(C)C)C(=O)N[C@@H](CC(=O)O)C(=O)N[C@@H](CCCCN)C(=O)N[C@@H](CCC(N)=O)C(=O)N[C@@H](C)C(=O)N[C@@H](C)C(=O)NC(C)(C)C(=O)N[C@@H](CCC(=O)O)C(=O)N[C@@H](Cc1ccccc1)C(=O)N[C@H](C(=O)N[C@@H](CC(N)=O)C(=O)N[C@@H](Cc1c[nH]c2ccccc12)C(=O)N[C@@H](CC(C)C)C(=O)N[C@@H](CC(C)C)C(=O)N[C@@H](CC(=O)O)C(=O)N[C@H](C(N)=O)[C@@H](C)O)C(C)C)[C@@H](C)CC)C(=O)O)C(=O)O` [compound 92] (H-Y[Aib]QGTFTSDK([γGlu-γGlu-Palmitoyl])SIYLDKQAA[Aib]EFVNWLLDT-NH2; N-terminus assumed), the EC50 on GIP receptor (EC50 (nM) at GIP Receptor, Table 7, Example 13) worked out at 0.021 nM; on GLP-1 receptor (EC50 (nM) at GLP-1 Receptor, Table 7, Example 13), 0.0031 nM.
“H[Aib]EGTFTSDYSKYLDERAAQDFVQWLLDGGPSSGAPPPSK([γGlu-γGlu-Palmitoyl])G-NH2 [SEQ ID NO: 171]”: the EC50 at GIP receptor (EC50 (nM) at GIP receptor, Table 15, Example 23) came to 0.038 nM; at GLP-1 receptor (EC50 (nM) at GLP-1 receptor, Table 15, Example 23), 0.005 nM.
